In US12076331B2, “Inositol derivatives for use in pathological crystallization” (ETH Zurich, priority 2015, dated 2024):

Tests used:
[1] = In-solution screening of CaP precipitation and aggregation in artificial renal tubular fluid (RTF); format: physicochemical; conditions: 9 mM phosphate, 8 mM calcium, 4 h
Method: Effects of (A) OEG2-IP5, (B) OEG11-IP5, (C) (OEG2)2-IP4, (D) (OEG11)2-IP4 and (E) OEG8-(IP5)2. on CaP precipitation in RTF spiked with 9 mM disodium phosphate and 8 mM calcium chloride were assessed by light microscopy followed by automated image analysis at t=4 h. Quantification of the total area covered with CaP precipitates/total area field of view (N=3, mean+SD, normalized to the control).
Effects of (A) OEG2-IP5, (B) OEG11-IP5, (C) (OEG2)2-IP4, (D) (OEG11)2-IP4 and (E) OEG8-(IP5)2. on CaP precipitation in RTF spiked with 9 mM disodium phosphate and 8 mM calcium chloride were assessed by light microscopy followed by automated image analysis at t=4 h. Quantification of the mean size of aggregates/field of view normalized to the ctrl (N=3, mean+SD, normalized to the control).
Overview table showing the minimal concentration of compound (FIG. 3 for the chemical structures) required to achieve complete inhibition of CaP precipitation (total area covered with crystals <10% of total area control); and minimal concentration required to prevent CaP crystal aggregation in the CaP screening assay (CaP aggregate size <50% of aggregate size control) (N=3).
An artificial renal tubular fluid (RTF) with a final composition of 0.05 mM oxalate, 0.005 mM sulphate, 408 mM sodium, 424 mM chloride, 0.26 mM potassium, 4 mM magnesium and 0.2 mM citrate in double distilled water was prepared according to a literature report (Fasano, J. M. et al., Kidney Int. 59, 169-178. DOI: 10.1046/j. 1523-1755.2001.00477.x, 2001). The solution was filtered with a 0.45-μm syringe filter. Twenty mM Bis-Tris buffer was added to the reported protocol to ensure pH stability throughout experiments and pH was set to 7.2. The artificial RTF was stored at room temperature for up to four months. Stock solutions of 0.25 M phosphate and 1 M calcium were prepared in double distilled water and were stored separately at −20° C.
Twenty-x final concentration phosphate, 20× final concentration calcium and 10× final concentration compound dilutions were prepared in RTF. Assay mixture consisting of 80% RTF, 10% compound dilution, 5% phosphate dilution and 5% calcium dilution was prepared in Eppendorf tubes as follows. RTF (320 μL) was mixed with 20 μL phosphate dilution (final concentration of 9 mM), 40 μL compound dilution and 20 μL calcium dilution (final concentration of 8 mM). The assay mixture was vortexed after adding each component and 380 μL of the mixture were immediately added to 8-well glass bottom slides and incubated for 4 hat RT. CaP precipitation was assessed using a Leica DM 6000B microscope (Leica Microsystems, Wetzlar, Germany) in brightfield mode. For quantification 3 wells/condition with 3-4 images/well were imaged with a 40× objective. The total area covered with CaP deposits in percentage of the field of view and the mean size of CaP aggregates were determined.
In a first step, the influence of selected IP6 analogues (FIG. 5) on CaP precipitation and growth was assessed in vitro using artificial renal tubular fluid (RTF) (Table 1). In a previous study, the inventors investigated CaP protein particle formation in serum. However, an important difference to cardiovascular calcification lies in the extremely low protein content of the renal tubular fluid vs. the high abundance of proteins in blood, which can stabilize amorphous particles. Two cut-offs were chosen for assessing efficacy. First, complete inhibition was defined as a >90% reduction of detected CaP precipitates compared to the control sample without compound. Second, inhibition of CaP aggregation was defined as a >50% reduction of the mean size of aggregates when compared to the control.

[2] = tested on: RPTEC/TERT 1 human proximal tubule cells; assay: RNA sequencing of Ca/P treated RPTEC; format: cell-based; conditions: 50 μM, 5/7 mM Ca/P, 24 h
Text: A) Heatmap and hierarchical clustering of relative gene expression levels determined by RNA sequencing. […] Weighted set coverage of gene ontology terms and their respective enrichment score for differentially expressed genes in the Ca/P vs. medium control group is plotted (all FDR≤0.05). D) Normalized count of gene transcripts (FPKM—fragments per kilobase of exon model per million reads mapped) involved in inflammatory responses, ECM composition, cell proliferation and tissue homeostasis of the different treatment groups is plotted (mean+SD, N=3).
Cells were cultured as described in the imaging assay and treated with a medium control (ProxUp basal medium containing 1/1 mM Ca/P), 5/7 mM Ca/P, 5/7 mM Ca/P in medium containing 50 µM (OEG2)2-IP4 or 50 µM (OEG2)2-IP4 in medium for 24 h. Total RNA was extracted using the RNeasy kit (Quiagen) according to the manufacturer's instructions. Three wells per sample group were prepared and total RNA extracted of those 3 wells pooled. mRNA was purified and RNAseq library was prepared using the TrueSeq RNA kit (Illumina). […] Reads were aligned to the human reference genome GRCh38.p10 using the STAR tool (https://github.com/alexdobin/STAR) and transcripts quantified using the Kallisto program (42). […] For comparison of expression levels of the selected genes, the fragments per kilobase of exon model per million reads mapped (FPKM) were used. […]

[3] = previous study, Kletzmayr et al. 2020; cited from earlier work

Compound: COCCOCCO[C@@H]1C(OP(=O)(O)O)[C@H](OCCOCCOC)[C@@H](OP(=O)(O)O)C(OP(=O)(O)O)[C@H]1OP(=O)(O)O (stereo partly drawn) [(OEG2)2-IP4]
- effect on CaP precipitation/crystallization in words [1]: did not further increase the inhibitory activity
- Ca/P-induced change in gene expression profile [2]: prevented
- efficacy on CaOx crystallization in solution [3]: limited efficacy
